This is an account of results in ChEMBL document CHEMBL1932949, “Novel indoleamine 2,3-dioxygenase-1 inhibitors from a multistep in silico screen” (Bioorg Med Chem, 2012).

The first series has as its target T1, Indoleamine 2,3-dioxygenase 1 (Homo sapiens, UniProt P14902). Description: Inhibition of His-tagged recombinant human IDO1 expressed in Escherichia coli using tryptophan as substrate by HPLC analysis.
Conditions: not given
Target sequence in this assay (P14902 whole entry): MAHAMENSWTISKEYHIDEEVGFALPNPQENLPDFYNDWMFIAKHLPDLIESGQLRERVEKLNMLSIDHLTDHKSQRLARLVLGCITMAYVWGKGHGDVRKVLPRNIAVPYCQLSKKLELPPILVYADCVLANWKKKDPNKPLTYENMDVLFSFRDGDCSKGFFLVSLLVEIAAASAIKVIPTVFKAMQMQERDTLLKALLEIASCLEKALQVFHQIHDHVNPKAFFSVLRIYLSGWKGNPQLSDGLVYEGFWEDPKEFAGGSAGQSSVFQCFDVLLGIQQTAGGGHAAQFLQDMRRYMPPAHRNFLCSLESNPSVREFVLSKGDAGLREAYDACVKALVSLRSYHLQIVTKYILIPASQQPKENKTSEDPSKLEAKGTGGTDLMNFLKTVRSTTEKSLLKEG
Usually IC50 stands for the midpoint of a concentration-inhibition curve. For `Nc1ccc2c(c1)N1CCN=C1S2`, the 50% inhibitory concentration (IC50) came out at 50 µM.

Another series addresses T1, Indoleamine 2,3-dioxygenase 1. The series can be described thus: Inhibition of His-tagged recombinant human IDO1 expressed in Escherichia coli using tryptophan as substrate by spectrophotometric analysis.
Conditions: not given
Target sequence in this assay (P14902 whole entry): as above
Consider `c1ccc2c(c1)[nH]c1cnccc12` [NORHARMANE], for which the half-inhibitory concentration (IC50) amounted to 90 µM. The same measure, in the same setting: the value for `O=C(O)c1cc2ccccc2cc1O` was 1000 µM; that for `Nc1cc2ccccc2cc1CO` was 190 µM; that for `Nc1cc2ccccc2cc1C(=O)O` was 15 µM. As for `COC(=O)c1cc2ccccc2cc1N`, the IC50 stood at 460 µM.

The target is the same in another series. As to conditions: at 200 µM.
Target sequence in this assay (P14902 whole entry, looked up): as the sequence (P14902 whole entry) above
Description: Inhibition of His-tagged recombinant human IDO1 expressed in Escherichia coli using tryptophan as substrate at 200 uM by spectrophotometric analysis
By inhibition is commonly meant the drop in the measured response relative to a control, in per cent. In turn, `O=c1[nH]nc2n1-c1ccccc1SC2` came in with an inhibition of 0%. As to `CN(C)CCCNc1cccc(Cl)c1C#N`, the inhibition was 0%. On the same count and under the same terms, then `S=C1N2CCN=C2SC2=NCCN12`, with 0%; and `N/C(CS(=O)(=O)c1ccccc1)=N\O`, with 0%. As for `Sc1nnc2nnc3ccccc3n12`, the inhibition came to 0%. The same measure, in the same setting: the value for `O[C@@H](CNCCNc1nccc(C(F)(F)F)n1)CSc1ccc(F)cc1` was 0%. Still for that read-out and setting: then `N/C(=N\OS(=O)(=O)c1ccc(Cl)cc1)c1ccc(C(F)(F)F)cc1`, with 0%; and `CCOC(=O)N1CCN(CC(O)Cn2c(=O)c3c(ncn3C)n(C)c2=O)CC1` (stereo not given), with 0%; and `Cc1cc2nnc(/C(N)=N/O)c(C)n2n1`, with 0%.

Regarding `O=c1c2ccccc2nc2ccccn12`, the inhibition came out at 0%. Consider `O=c1nc2sccn2c2ncccc12`, for which the inhibition worked out at 0%. The same measure, in the same setting: the value for `N/C(=N/OC(=O)c1cc2ccccc2oc1=O)c1ccc(Oc2ccc(C(F)(F)F)cc2[N+](=O)[O-])cc1` was 70%. With `OC1(c2ccc(Cl)cc2)CCN(Cn2nnc3ccccc32)CC1`, the inhibition turned out to be 0%.

`Nc1ccc2c(c1)N1CCN=C1S2` gave an inhibition of 70%. On the same count and under the same terms, then `Cn1c(S)nnc1-c1ccc(Cl)cc1`, with 0%. `CN1CCN(C(=O)c2nccnc2C(=O)O)CC1` returned an inhibition of 0%. The molecule `N/C(=N\OC(=O)c1ccccc1Cl)c1cccc(CS(=O)(=O)c2ccc(Cl)cc2)c1` registered an inhibition of 70%.

`Cc1nnsc1C(=O)O/N=C(/N)COc1ccc(C2SCCS2)cc1` had an inhibition of 70%.

The target is the same in the next series. Description: Inhibition of His-tagged recombinant human IDO1 expressed in Escherichia coli using tryptophan as substrate by Ehrlich's method.
Conditions: not given
Target sequence in this assay (P14902 whole entry): as above
As to `N=C(NOC(=O)c1cc2ccccc2oc1=O)c1ccc(Oc2ccc(C(F)(F)F)cc2[N+](=O)[O-])cc1`, the IC50 was determined as 20 µM. Regarding `NC(=NOC(=O)c1ccccc1Cl)c1cccc(CS(=O)(=O)c2ccc(Cl)cc2)c1`, the half-inhibitory concentration (IC50) was determined as 60 µM. For the molecule `Cc1nnsc1C(=O)O/N=C(/N)COc1ccc(C2SCCS2)cc1`, the half-maximal inhibitory concentration (IC50) was 50 µM.

Another series has the same target. The series can be described thus: Inhibition of His-tagged recombinant human IDO1 expressed in Escherichia coli using tryptophan as substrate at 100 uM by spectrophotometric analysis.
Conditions: not given
Target sequence in this assay (P14902 whole entry, looked up): as the sequence (P14902 whole entry) above
Regarding `Nc1cc2ccccc2cc1C(=O)O`, the inhibition was found to be 74%.

Test system in the next series: not listed separately
The series can be described thus: Dissociation constant, pKa of the compound. Type of series: physicochemical.
Conditions: not given
A word on the pKa: it is the pH at which an ionisable group is half protonated. The molecule `CSC(=N)N` returned a pKa of 9.83.

A further series concerns the target T1, Indoleamine 2,3-dioxygenase 1. The series can be described thus: Inhibition of IDO1.
Conditions: not given
Target sequence in this assay (P14902 whole entry): as above
The molecule `Cc1[nH]ccc2c1[nH]c1cc(=O)ccc12` [HARMOL] came in with a half-inhibitory concentration (IC50) of 2000 µM.
